Assay results: ChEMBL document CHEMBL5715952 (Oncotarget, 2015)
pIC50: −log10 of the molar value.

Assays:
[1] = Inhibition of CSF1R/FLT3 in Melphalan Resistant human RPMI-8226 cells assessed as reduction of cell growth incubated for 72 hrs by CellTiter 96 aqueous one solution cell proliferation assay; format: cell-based; settings: Melphalan-resistant RPMI-8226 cell
[2] = Inhibition of CSF1R/FLT3 in human ANBL-6 cells assessed as reduction of cell growth incubated for 72 hrs by CellTiter 96 aqueous one solution cell proliferation assay; format: cell-based; settings: ANBL-6, 72 h
[3] = Ratio of IC50 for inhibition of CSF1R/FLT3 in human ANBL6 cells assessed as reduction of cell viability to IC50 for inhibition of CSF1R/FLT3 in human ANBL6/BR resistant cells assessed as reduction of cell viability; settings: condition multiple myeloma
[4] = Inhibition of CSF1R/FLT3 in human bortezomib-resistant ANBL6 cells assessed as reduction of cell growth incubated for 72 hrs by CellTiter 96 aqueous one solution cell proliferation assay; format: cell-based
[5] = Inhibition of CSF1R/FLT3 in bortezomib Resistant human RPMI-8226 cells assessed as reduction of cell growth incubated for 72 hrs by CellTiter 96 aqueous one solution cell proliferation assay; format: cell-based; settings: Bortezomib-resistant RPMI-8226, 72 h
[6] = Inhibition of CSF1R/FLT3 in human RPMI-8226 cells assessed as reduction of cell growth incubated for 72 hrs by CellTiter 96 aqueous one solution cell proliferation assay; format: cell-based; settings: RPMI-8226, 72 h
[7] = Ratio of IC50 for inhibition of CSF1R/FLT3 in human RPMI-8226 cells assessed as reduction of cell viability to IC50 for inhibition of CSF1R/FLT3 in human melphalan-resistant RPMI-8226 cells assessed as reduction of cell viability; settings: time 72 hrs; condition multiple myeloma
[8] = Inhibition of CSF1R/FLT3 in human U-266 cells assessed as reduction of cell growth incubated for 72 hrs by CellTiter 96 aqueous one solution cell proliferation assay; format: cell-based; settings: U-266, 72 h
[9] = Ratio of IC50 for inhibition of CSF1R/FLT3 in human RPMI-8226 cells assessed as reduction of cell viability to IC50 for inhibition of CSF1R/FLT3 in human RPMI-8226/BR resistant cells assessed as reduction of cell viability; settings: condition multiple myeloma
[10] = Inhibition of PI3K/mTOR/ATM in human RPMI-8226 cells assessed as reduction of cell growth incubated for 72 hrs by CellTiter 96 aqueous one solution cell proliferation assay; format: cell-based; settings: RPMI-8226, 72 h
[11] = Ratio of IC50 for inhibition of PI3K/mTOR/ATM in human ANBL6 cells assessed as reduction of cell viability to IC50 for inhibition of PI3K/mTOR/ATM in human ANBL6/BR resistant cells assessed as reduction of cell viability; settings: condition multiple myeloma
[12] = Inhibition of PI3K/mTOR/ATM in human bortezomib-resistant ANBL6 cells assessed as reduction of cell growth incubated for 72 hrs by CellTiter 96 aqueous one solution cell proliferation assay; format: cell-based
[13] = Inhibition of PI3K/mTOR/ATM in bortezomib Resistant human RPMI-8226 cells assessed as reduction of cell growth incubated for 72 hrs by CellTiter 96 aqueous one solution cell proliferation assay; format: cell-based; settings: Bortezomib-resistant RPMI-8226, 72 h
[14] = Inhibition of PI3K/mTOR/ATM in human U-266 cells assessed as reduction of cell growth incubated for 72 hrs by CellTiter 96 aqueous one solution cell proliferation assay; format: cell-based; settings: U-266, 72 h
[15] = Ratio of IC50 for inhibition of PI3K/mTOR/ATM in human RPMI-8226 cells assessed as reduction of cell viability to IC50 for inhibition of PI3K/mTOR/ATM in human RPMI-8226/BR resistant cells assessed as reduction of cell viability; settings: condition multiple myeloma
[16] = Inhibition of PI3K/mTOR/ATM in Melphalan Resistant human RPMI-8226 cells assessed as reduction of cell growth incubated for 72 hrs by CellTiter 96 aqueous one solution cell proliferation assay; format: cell-based; settings: Melphalan-resistant RPMI-8226 cell
[17] = Inhibition of PI3K/mTOR/ATM in human ANBL-6 cells assessed as reduction of cell growth incubated for 72 hrs by CellTiter 96 aqueous one solution cell proliferation assay; format: cell-based; settings: ANBL-6, 72 h
[18] = Ratio of IC50 for inhibition of PI3K/mTOR/ATM in human RPMI-8226 cells assessed as reduction of cell viability to IC50 for inhibition of PI3K/mTOR/ATM in human melphalan-resistant RPMI-8226 cells assessed as reduction of cell viability; settings: time 72 hrs; condition multiple myeloma

| SMILES | pIC50 [1] | pIC50 [2] | Ratio IC50 [3] | pIC50 [4] | pIC50 [5] | pIC50 [6] | Ratio IC50 [7] | pIC50 [8] | Ratio IC50 [9] | pIC50 [10] | Ratio IC50 [11] | pIC50 [12] | pIC50 [13] | pIC50 [14] | Ratio IC50 [15] | pIC50 [16] | pIC50 [17] | Ratio IC50 [18] |
| --- | --- | --- | --- | --- | --- | --- | --- | --- | --- | --- | --- | --- | --- | --- | --- | --- | --- | --- |
| CN(C)CC(=O)N1CCC(c2ccc(NC(=O)c3nc(C#N)c[nH]3)c(C3=CCCCC3)c2)CC1 | 5.00 | 5.00 | 1 | 5.00 | 5.00 | 5.00 | 1 | 5.00 | 1 |  |  |  |  |  |  |  |  |  |
| O=c1cc(-c2cccc3c2Sc2ccccc2S3)oc(N2CCOCC2)c1 [KU-55933] |  |  |  |  |  |  |  |  |  | 5.00 | 1 | 5.00 | 5.00 | 5.00 | 1 | 5.00 | 5.00 | 1 |
